From patent publication US10907168B2, “Jasmonic acid pathway activator” (MEDICAGO INC., priority 2015, dated 2021)

Test system: cathepsin L-like C1A Cys proteases
Experiment: Protease assay in leaf crude extracts, Z-Phe-Arg-MCA substrate
Type: in vivo, Nicotiana benthamiana
Details: three tested doses (0.5, 1, 2 mM), seven days post-treatment, ANOVA P>0.05
Description: Forty-two day-old N. benthamiana plants grown in greenhouse were used for the experiments. Each plant was sprayed evenly with 50 ml of 0.5 mM, 1 mM or 2 mM MeJA in water containing 0.1% (v/v) Triton X-100 (Sigma-Aldrich, Mississauga ON, Canada), or with 50 ml of 1 mM arachidonic acid (Girard et al., 2007) in the same solvent, and transferred for seven days in a Conviron growth chamber (Conviron, Winnipeg MB, Canada). Plants sprayed with 50 ml of 0.1% (v/v) Triton X-100 in water were used in parallel as negative controls to avoid confounding effects due to experimental conditions. […]
Whole leaf proteins were extracted from three 1-cm^2 leaf discs in 400 μl of ice-cold 50 mM Tris-HCl, pH 7.5, containing 150 mM NaCl, by disrupting the leaf samples with tungsten carbide beads (Qiagen, Mississauga ON, Canada) in a Mini-Beadbeater apparatus (BioSpec, Bartlesville Okla., USA). […] RuBisCO small subunit was detected using polyclonal IgG raised in rabbit against a synthetic small subunit peptide (Agrisera, Vännäs, Sweden) and alkaline phosphatase-conjugated goat anti-rabbit IgG as secondary antibodies (Sigma-Aldrich). RuBisCO large subunit was detected using polyclonal IgG raised in hen against a synthetic large subunit peptide (Agrisera) and alkaline phosphatase-conjugated goat anti-chicken IgG as secondary antibodies (Sigma-Aldrich). […]

**Q.** How did the “cathepsin L-like activity” value turn out when `CC/C=C\C[C@H]1C(=O)CC[C@@H]1CC(=O)OC` [MeJA, methyl jasmonate] was run?
**A.** The value was “no impact”.
